Assay results: patent publication US10800792B2, “Inhibitors of Bruton's tyrosine kinase and method of their use” (JANSSEN PHARMACEUTICA NV, priority 2015, dated 2020)

Target: unphosphorylated-BTK kinase domain (UP-BTK), GST-tagged human BTK (389-659aa) (Homo sapiens (Human), UniProt Q06187)
Experiment: BTK kinase Lanthascreen binding assay
Conditions: Lanthascreen tracer competition, 60 minutes incubation, pIC50 = negative log of the IC50 in molar
Summary of the method: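 Tracer-displacement binding assay against the non-phosphorylated enzyme, read by Lanthascreen. Reported: pIC50.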

Chain of unphosphorylated-BTK kinase domain (UP-BTK), GST-tagged human BTK (389-659aa) (Q06187 389-659): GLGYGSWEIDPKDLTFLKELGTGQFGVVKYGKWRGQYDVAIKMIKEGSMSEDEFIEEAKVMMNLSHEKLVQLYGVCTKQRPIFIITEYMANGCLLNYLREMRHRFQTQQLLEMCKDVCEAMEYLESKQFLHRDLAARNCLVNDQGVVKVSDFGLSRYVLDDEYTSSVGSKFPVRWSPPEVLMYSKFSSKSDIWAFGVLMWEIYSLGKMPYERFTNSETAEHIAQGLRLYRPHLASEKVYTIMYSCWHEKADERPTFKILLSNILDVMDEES

Structure (SMILES)	BTK_I_binding pIC50	IC50 (read-out: BTK_I_binding pIC50 (converted)) [nM]
COc1ccc(N2C(=O)Nc3c(C(=O)NC4CCCN(C(=O)/C(C#N)=C/C5CC5)C4)sc4nccc2c34)c(C)c1 (stereo not shown) [Example 878, (E)-N-(1-(2-Cyano-3-cyclopropylacryloyl)piperidin-3-yl)-5-(4-methoxy-2-methylphenyl)-4-oxo-4,5-dihydro-3H-1-thia-3,5,8-triazaacenaphthylene-2-carboxamide]	7.1	–
Cc1cc(Oc2ccccc2)ccc1N1C(=O)Nc2c(C(=O)N[C@H]3CCCN(C=O)C3)sc3nccc1c23 [Example 879, (S)—N-(1-Formylpiperidin-3-yl)-5-(2-methyl-4-phenoxyphenyl)-4-oxo-4,5-dihydro-3H-1-thia-3,5,8-triazaacenaphthylene-2-carboxamide]	7.1	–
Cc1cc(Oc2ccccc2)ccc1N1C(=O)Nc2c(C(=O)N[C@@H]3CCCN(C(=O)/C(C#N)=C/C(C)(C)C)C3)sc3nccc1c23 [Example 880, (R,E)-N-(1-(2-Cyano-4,4-dimethylpent-2-enoyl)piperidin-3-yl)-5-(2-methyl-4-phenoxyphenyl)-4-oxo-4,5-dihydro-3H-1-thia-3,5,8-triazaacenaphthylene-2-carboxamide]	7.1	–
C=CC(=O)N1CC[C@@H](NC(=O)c2sc3nccc4c3c2NC(=O)N4c2ccc(Oc3ccccn3)cc2)C1 [Example 881, (R)—N-(1-Acryloylpyrrolidin-3-yl)-4-oxo-5-(4-(pyridin-2-yloxy)phenyl)-4,5-dihydro-3H-1-thia-3,5,8-triazaacenaphthylene-2-carboxamide]	7.1	–
Cc1cc(Oc2ccccc2)ccc1N1C(=O)Nc2c(C(=O)NC3CCCN(C(=O)CC#N)C3)sc3nccc1c23 (stereo not shown) [Example 882, N-(1-(2-Cyanoacetyl)piperidin-3-yl)-5-(2-methyl-4-phenoxyphenyl)-4-oxo-4,5-dihydro-3H-1-thia-3,5,8-triazaacenaphthylene-2-carboxamide]	7.0	–
COc1ccccc1Oc1ccc(N2C(=O)Nc3c(C(=O)NC4CCCN(C#N)C4)sc4nccc2c34)c(C)c1 (stereo not shown) [Example 883, N-(1-Cyanopiperidin-3-yl)-5-(4-(2-methoxyphenoxy)-2-methylphenyl)-4-oxo-4,5-dihydro-3H-1-thia-3,5,8-triazaacenaphthylene-2-carboxamide]	7.0	–
COc1ccccc1Oc1ccc(N2C(=O)Nc3c(C(=O)NC4CCN(C#N)CC4)sc4nccc2c34)c(C)c1 [Example 884, N-(1-Cyanopiperidin-4-yl)-5-(4-(2-methoxyphenoxy)-2-methylphenyl)-4-oxo-4,5-dihydro-3H-1-thia-3,5,8-triazaacenaphthylene-2-carboxamide]	7.0	–
Cc1cc(Oc2ccccc2)ccc1N1C(=O)Nc2c(C(=O)N[C@@H]3CCCN(C=O)C3)sc3nccc1c23 [Example 885, (R)—N-(1-Formylpiperidin-3-yl)-5-(2-methyl-4-phenoxyphenyl)-4-oxo-4,5-dihydro-3H-1-thia-3,5,8-triazaacenaphthylene-2-carboxamide]	7.0	–
Cc1ccccc1N1C(=O)Nc2c(C(=O)NC3CCCN(C(=O)/C(C#N)=C/C4CC4)C3)sc3nccc1c23 (stereo not shown) [Example 886, (E)-N-(1-(2-Cyano-3-cyclopropylacryloyl)piperidin-3-yl)-4-oxo-5-(o-tolyl)-4,5-dihydro-3H-1-thia-3,5,8-triazaacenaphthylene-2-carboxamide]	7.0	–
Cc1cc(Oc2ccccc2)ccc1N1C(=O)Nc2c(C(=O)N[C@H]3CCCN(C#N)C3)sc3nccc1c23 [Example 887, (S)—N-(1-Cyanopiperidin-3-yl)-5-(2-methyl-4-phenoxyphenyl)-4-oxo-4,5-dihydro-3H-1-thia-3,5,8-triazaacenaphthylene-2-carboxamide]	7.0	–
CC(=O)N1CC[C@@H](NC(=O)c2sc3nccc4c3c2NC(=O)N4c2ccc(Oc3ccccc3)cc2)C1 [Example 888, (R)—N-(1-Acetylpyrrolidin-3-yl)-4-oxo-5-(4-phenoxyphenyl)-4,5-dihydro-3H-1-thia-3,5,8-triazaacenaphthylene-2-carboxamide]	7.0	–
Cc1cc(Oc2ccccc2)ccc1N1C(=O)Nc2c(C(=O)NC3CCCNC3)sc3nccc1c23 (stereo not shown) [Example 889, 5-(2-methyl-4-phenoxyphenyl)-4-oxo-N-(piperidin-3-yl)-4,5-dihydro-3H-1-thia-3,5,8-triazaacenaphthylene-2-carboxamide]	7.0	–
Cc1cc(Oc2ccccc2)ccc1N1C(=O)Nc2c(C(=O)NC3CCCN(C#N)C3)sc3nccc1c23 (stereo not shown) [Example 890, N-(1-Cyanopiperidin-3-yl)-5-(2-methyl-4-phenoxyphenyl)-4-oxo-4,5-dihydro-3H-1-thia-3,5,8-triazaacenaphthylene-2-carboxamide]	7.0	–
CCC(=O)N1CCC[C@H](NC(=O)c2sc3nccc4c3c2NC(=O)N4c2ccc(Oc3ccccc3)cc2C)C1 [Example 891, (S)-5-(2-Methyl-4-phenoxyphenyl)-4-oxo-N-(1-propionylpiperidin-3-yl)-4,5-dihydro-3H-1-thia-3,5,8-triazaacenaphthylene-2-carboxamide]	7.0	–
Cc1cc(Oc2ccccc2)ccc1N1C(=O)Nc2c(C(=O)N[C@H]3CCCN(C(=O)CC#N)C3)sc3nccc1c23 [Example 892, (S)—N-(1-(2-Cyanoacetyl)piperidin-3-yl)-5-(2-methyl-4-phenoxyphenyl)-4-oxo-4,5-dihydro-3H-1-thia-3,5,8-triazaacenaphthylene-2-carboxamide]	7.0	–
Cc1cc(Oc2ccccc2)ccc1N1C(=O)Nc2c(C(=O)N[C@@H]3CCCN(C(=O)[C@@H]4CCCN4)C3)sc3nccc1c23 [Example 893, 5-(2-Methyl-4-phenoxyphenyl)-4-oxo-N—((R)-1-((S)-pyrrolidine-2-carbonyl)piperidin-3-yl)-4,5-dihydro-3H-1-thia-3,5,8-triazaacenaphthylene-2-carboxamide]	–	100
C=CC(=O)N1CCC[C@@H](NC(=O)c2sc3nccc4c3c2NC(=O)N4c2ccc(Oc3cccc(COc4ccccc4C#N)c3)cc2C)C1 [Example 894, (R)—N-(1-Acryloylpiperidin-3-yl)-5-(4-(3-((2-cyanophenoxy)methyl)phenoxy)-2-methylphenyl)-4-oxo-4,5-dihydro-3H-1-thia-3,5,8-triazaacenaphthylene-2-carboxamide]	7.0	–
Cc1cc(C(=O)Nc2cc(C(F)(F)F)ccn2)ccc1N1C(=O)Nc2c(C(=O)N[C@H]3CCCN(C(=O)/C(C#N)=C/C4CC4)C3)sc3nccc1c23 [Example 895, (S,E)-N-(1-(2-Cyano-3-cyclopropylacryloyl)piperidin-3-yl)-5-(2-methyl-4-((4-(trifluoromethyl)pyridin-2-yl)carbamoyl)phenyl)-4-oxo-4,5-dihydro-3H-1-thia-3,5,8-triazaacenaphthylene-2-carboxamide]	7.0	–
COc1ccccc1Oc1ccc(N2C(=O)Nc3c(C(=O)NC4CCCN(C(=O)/C(C#N)=C/C(C)(C)C)C4)sc4nccc2c34)c(C)c1 (stereo not shown) [Example 896, (E)-N-(1-(2-Cyano-4,4-dimethylpent-2-enoyl)piperidin-3-yl)-5-(4-(2-methoxyphenoxy)-2-methylphenyl)-4-oxo-4,5-dihydro-3H-1-thia-3,5,8-triazaacenaphthylene-2-carboxamide]	6.9	–
